Measurements reported in PubChem BioAssay AID1963965 (Molecular Pharmacology Branch, DTP, NCI, 2024).

Test system: 996289-038-R-J1-PDC spheroid viability
Assay: Anticancer human tumor 996289-038-R-J1-PDC patient-derived colon adenocarcinoma cell line growth inhibition [PI3K]
Settings: spheroids with HUVEC and MSC; for IC50: curve of first compound; for viability, T/C: stronger effect = lower value
Procedure, shortened: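 Three cell types, namely tumor cells, endothelial cells and mesenchymal stem cells, formed each spheroid. Combinations with four PI3K inhibitors were screened at clinically achievable concentrations decreasing by half-log, and spheroid viability was recorded.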
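Note: spheroids exposed to compounds for seven days before viability read.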
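Throughout, for viability, T/C: luminescence used as a proxy for viable cell amount; percent viability relative to DMSO vehicle control as 100%.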

## CC(=O)c1c(C)c2cnc(Nc3ccc(N4CCNCC4)cn3)nc2n(C2CCCC2)c1=O + COc1c(OCCCN2CCOCC2)ccc2c3n(c(=NC(=O)c4cnc(N)nc4)nc12)CCN3
Second compound 0.00316 µM
  IC50: > 100 nM
Second compound 0.01 µM
  IC50: > 100 nM
Second compound 0.0316 µM
  IC50: > 100 nM
Second compound 0.1 µM
  IC50: > 100 nM
Second compound 0.316 µM
  IC50: < 0.316 nM
Second compound 1 µM
  IC50: < 0.316 nM
Second compound 0.00316 µM, first compound 0.000316 µM
  viability, T/C: 99.3%
Second compound 0.00316 µM, first compound 0.001 µM
  viability, T/C: 96.9%
Second compound 0.00316 µM, first compound 0.00316 µM
  viability, T/C: 104%
Second compound 0.00316 µM, first compound 0.01 µM
  viability, T/C: 94.2%
Second compound 0.00316 µM, first compound 0.0316 µM
  viability, T/C: 97.4%
Second compound 0.00316 µM, first compound 0.1 µM
  viability, T/C: 83.1%
Second compound 0.01 µM, first compound 0.000316 µM
  viability, T/C: 89.1%
Second compound 0.01 µM, first compound 0.001 µM
  viability, T/C: 89.9%
Second compound 0.01 µM, first compound 0.00316 µM
  viability, T/C: 80.2%
Second compound 0.01 µM, first compound 0.01 µM
  viability, T/C: 90.8%
Second compound 0.01 µM, first compound 0.0316 µM
  viability, T/C: 94.2%
Second compound 0.01 µM, first compound 0.1 µM
  viability, T/C: 73%
Second compound 0.0316 µM, first compound 0.000316 µM
  viability, T/C: 66.1%
Second compound 0.0316 µM, first compound 0.001 µM
  viability, T/C: 81.4%
Second compound 0.0316 µM, first compound 0.00316 µM
  viability, T/C: 80.5%
Second compound 0.0316 µM, first compound 0.01 µM
  viability, T/C: 81.8%
Second compound 0.0316 µM, first compound 0.0316 µM
  viability, T/C: 73.7%
Second compound 0.0316 µM, first compound 0.1 µM
  viability, T/C: 70.6%
Second compound 0.1 µM, first compound 0.000316 µM
  viability, T/C: 62.7%
Second compound 0.1 µM, first compound 0.001 µM
  viability, T/C: 56%
Second compound 0.1 µM, first compound 0.00316 µM
  viability, T/C: 59.4%
Second compound 0.1 µM, first compound 0.01 µM
  viability, T/C: 55%
Second compound 0.1 µM, first compound 0.0316 µM
  viability, T/C: 57.5%
Second compound 0.1 µM, first compound 0.1 µM
  viability, T/C: 49.8%
Second compound 0.316 µM, first compound 0.000316 µM
  viability, T/C: 34.4%
Second compound 0.316 µM, first compound 0.001 µM
  viability, T/C: 31.6%
Second compound 0.316 µM, first compound 0.00316 µM
  viability, T/C: 39.1%
Second compound 0.316 µM, first compound 0.01 µM
  viability, T/C: 31.3%
Second compound 0.316 µM, first compound 0.0316 µM
  viability, T/C: 37.8%
Second compound 0.316 µM, first compound 0.1 µM
  viability, T/C: 29.4%
Second compound 1 µM, first compound 0.000316 µM
  viability, T/C: 19.1%
Second compound 1 µM, first compound 0.001 µM
  viability, T/C: 22%
Second compound 1 µM, first compound 0.00316 µM
  viability, T/C: 21.5%
Second compound 1 µM, first compound 0.01 µM
  viability, T/C: 16.6%
Second compound 1 µM, first compound 0.0316 µM
  viability, T/C: 17.7%
Second compound 1 µM, first compound 0.1 µM
  viability, T/C: 15.9%
